Data: patent US11987586B1 (TAKEDA PHARMACEUTICAL COMPANY LIMITED, priority 2022, dated 2024)

biological target: T1, human OX2 receptor (Homo sapiens, UniProt O43614); assay: Measurement of orexin type 2 receptor agonist activity (calcium fluorescence, Fluo-4, FDSS); assay type: cell-based; details: 3 uM test compound; CHO cells expressing human OX2 receptor; DMSO = 0%, 10 nM orexin A (human) = 100%
T1 construct: expressed in transfected cells
T1 sequence (O43614 1-444): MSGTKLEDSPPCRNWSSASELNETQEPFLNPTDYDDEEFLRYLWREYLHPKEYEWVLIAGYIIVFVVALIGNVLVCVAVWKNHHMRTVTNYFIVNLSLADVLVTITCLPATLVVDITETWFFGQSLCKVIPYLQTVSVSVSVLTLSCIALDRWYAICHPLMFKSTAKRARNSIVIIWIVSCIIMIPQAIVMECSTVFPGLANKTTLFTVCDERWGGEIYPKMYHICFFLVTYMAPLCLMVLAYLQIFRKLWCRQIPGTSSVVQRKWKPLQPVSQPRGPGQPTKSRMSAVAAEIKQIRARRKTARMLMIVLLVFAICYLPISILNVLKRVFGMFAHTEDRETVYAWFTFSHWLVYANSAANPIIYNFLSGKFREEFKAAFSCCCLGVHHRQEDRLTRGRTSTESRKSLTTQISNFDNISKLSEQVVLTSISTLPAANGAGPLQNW
Method in brief: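 Agonist activity (%) was normalised to the response to 10 nM final human orexin A (100%) and to the DMSO vehicle (0%). The response was measured as the Fluo-4 calcium signal, read kinetically over 1 min 40 s after compound addition to Fluo-4/probenecid-loaded stable CHO-K1 clones expressing human OX2 (aa 1-444).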

Going from Cc1cc(-c2c(F)cccc2F)c2c(N3C[C@H]4N(C[C@@H](NS(C)(=O)=O)C4(F)F)C3=O)noc2n1 [Example 164, N-{(6R,7aR)-2-[4-(2,6-difluorophenyl)-6-methyl[1,2]oxazolo[5,4-b]pyridin-3-yl]-7,7-difluoro-3-oxohexahydro-1H-pyrrolo[1,2-c]imidazol-6-yl}methanesulfonamide] to Cc1cc2onc(N3C[C@H]4N(C[C@@H](NS(C)(=O)=O)C4(F)F)C3=O)c2c(-c2c(F)cccc2F)c1F [Example 186, N-{(6R,7aR)-2-[4-(2,6-difluorophenyl)-5-fluoro-6-methyl-1,2-benzoxazol-3-yl]-7,7-difluoro-3-oxohexahydro-1H-pyrrolo[1,2-c]imidazol-6-yl}methanesulfonamide], the “OX2R agonist activity (3 uM, %)” value falls from 108% to 101%.

First: CCS(=O)(=O)N[C@@H]1Cn2c(cn(-c3noc4cc(C(F)F)cc(-c5c(F)cc(F)cc5F)c34)c2=O)C1(F)F [Example 165, N-{(6R)-2-[6-(difluoromethyl)-4-(2,4,6-trifluorophenyl)-1,2-benzoxazol-3-yl]-7,7-difluoro-3-oxo-2,5,6,7-tetrahydro-3H-pyrrolo[1,2-c]imidazol-6-yl}ethanesulfonamide]
Second: CCS(=O)(=O)N[C@@H]1Cn2c(cn(-c3noc4cc(OC(F)F)cc(-c5c(F)cc(F)cc5F)c34)c2=O)C1(F)F [Example 179, N-{(6R)-2-[6-(difluoromethoxy)-4-(2,4,6-trifluorophenyl)-1,2-benzoxazol-3-yl]-7,7-difluoro-3-oxo-2,5,6,7-tetrahydro-3H-pyrrolo[1,2-c]imidazol-6-yl}ethanesulfonamide]
The “OX2R agonist activity (3 uM, %)” value of the first is lower: 97% for the first, 109% for the second.

Going from CCS(=O)(=O)N[C@@H]1Cn2c(cn(-c3noc4cc(COC)cc(-c5c(F)cc(F)cc5F)c34)c2=O)C1(F)F [Example 166, N-{(6R)-7,7-difluoro-2-[6-(methoxymethyl)-4-(2,4,6-trifluorophenyl)-1,2-benzoxazol-3-yl]-3-oxo-2,5,6,7-tetrahydro-3H-pyrrolo[1,2-c]imidazol-6-yl}ethanesulfonamide] to CCS(=O)(=O)N[C@@H]1Cn2c(cn(-c3noc4cc(COC)cc(-c5c(F)cccc5F)c34)c2=O)C1(F)F [Example 167, N-{(6R)-2-[4-(2,6-difluorophenyl)-6-(methoxymethyl)-1,2-benzoxazol-3-yl]-7,7-difluoro-3-oxo-2,5,6,7-tetrahydro-3H-pyrrolo[1,2-c]imidazol-6-yl}ethanesulfonamide], the “OX2R agonist activity (3 uM, %)” value rises from 92% to 97%.

Going from CCS(=O)(=O)N[C@@H]1CN2C(=O)N(c3noc4cc(F)c(F)c(-c5c(F)cccc5F)c34)C[C@@H]2C1(F)F [Example 168, N-{(6R,7aR)-2-[4-(2,6-difluorophenyl)-5,6-difluoro-1,2-benzoxazol-3-yl]-7,7-difluoro-3-oxohexahydro-1H-pyrrolo[1,2-c]imidazol-6-yl}ethanesulfonamide] to CCS(=O)(=O)N[C@@H]1CN2C(=O)N(c3noc4cc(F)c(F)c(-c5c(F)cc(F)cc5F)c34)C[C@@H]2C1(F)F [Example 172, N-{(6R,7aR)-2-[5,6-difluoro-4-(2,4,6-trifluorophenyl)-1,2-benzoxazol-3-yl]-7,7-difluoro-3-oxohexahydro-1H-pyrrolo[1,2-c]imidazol-6-yl}ethanesulfonamide], the “OX2R agonist activity (3 uM, %)” value falls from 102% to 98%.

Compared with CCS(=O)(=O)N[C@@H]1Cn2c(cn(-c3noc4cc(C)c(F)c(-c5c(F)cccc5F)c34)c2=O)C1(F)F [Example 169, N-{(6R)-2-[4-(2,6-difluorophenyl)-5-fluoro-6-methyl-1,2-benzoxazol-3-yl]-7,7-difluoro-3-oxo-2,5,6,7-tetrahydro-3H-pyrrolo[1,2-c]imidazol-6-yl}ethanesulfonamide], CCS(=O)(=O)N[C@@H]1Cn2c(cn(-c3noc4cc(F)c(F)c(-c5c(F)cccc5F)c34)c2=O)C1(F)F [Example 170, N-{(6R)-2-[4-(2,6-difluorophenyl)-5,6-difluoro-1,2-benzoxazol-3-yl]-7,7-difluoro-3-oxo-2,5,6,7-tetrahydro-3H-pyrrolo[1,2-c]imidazol-6-yl}ethanesulfonamide] is lower in “OX2R agonist activity (3 uM, %)” value: 103% for the first, 94% for the second.

Compared with CS(=O)(=O)N[C@@H]1CN2C(=O)N(c3noc4cc(F)c(F)c(-c5c(F)cc(F)cc5F)c34)C[C@@H]2C1(F)F [Example 171, N-{(6R,7aR)-2-[5,6-Difluoro-4-(2,4,6-trifluorophenyl)-1,2-benzoxazol-3-yl]-7,7-difluoro-3-oxohexahydro-1H-pyrrolo[1,2-c]imidazol-6-yl}methanesulfonamide], Cc1cc2onc(N3C[C@H]4N(C[C@@H](NS(C)(=O)=O)C4(F)F)C3=O)c2c(-c2c(F)cc(F)cc2F)n1 [Example 191, N-{(6R,7aR)-7,7-difluoro-2-[6-methyl-4-(2,4,6-trifluorophenyl)[1,2]oxazolo[4,5-c]pyridin-3-yl]-3-oxohexahydro-1H-pyrrolo[1,2-c]imidazol-6-yl}methanesulfonamide] is lower in “OX2R agonist activity (3 uM, %)” value: 100% for the first, 98% for the second.

Going from Cc1cc(-c2c(F)cc(F)cc2F)c2c(-n3cc4n(c3=O)C[C@@H](NS(C)(=O)=O)C4(F)F)noc2n1 [Example 174, N-{(6R)-7,7-Difluoro-2-[6-methyl-4-(2,4,6-trifluorophenyl) [1,2]oxazolo [5,4-b]pyridin-3-yl]-3-oxo-2,5,6,7-tetrahydro-3H-pyrrolo[1,2-c]imidazol-6-yl}methanesulfonamide] to CCS(=O)(=O)N[C@@H]1Cn2c(cn(-c3noc4nc(C)cc(-c5c(F)cc(F)cc5F)c34)c2=O)C1(F)F [Example 190, N-{(6R)-7,7-difluoro-2-[6-methyl-4-(2,4,6-trifluorophenyl)[1,2]oxazolo[5,4-b]pyridin-3-yl]-3-oxo-2,5,6,7-tetrahydro-3H-pyrrolo[1,2-c]imidazol-6-yl}ethanesulfonamide], the “OX2R agonist activity (3 uM, %)” value rises from 95% to 96%.

First: CCS(=O)(=O)N[C@@H]1CN2C(=O)N(c3noc4nc(C)cc(-c5c(F)cc(F)cc5F)c34)C[C@@H]2C1(F)F [Example 175, N-{(6R,7aR)-7,7-difluoro-2-[6-methyl-4-(2,4,6-trifluorophenyl)[1,2]oxazolo[5,4-b]pyridin-3-yl]-3-oxohexahydro-1H-pyrrolo[1,2-c]imidazol-6-yl}ethanesulfonamide]
Second: CS(=O)(=O)N[C@@H]1CN2C(=O)N(c3noc4cc(OC(F)F)cc(-c5c(F)cc(F)cc5F)c34)C[C@@H]2C1(F)F [Example 193, N-{(6R,7aR)-2-[6-(difluoromethoxy)-4-(2,4,6-trifluorophenyl)-1,2-benzoxazol-3-yl]-7,7-difluoro-3-oxohexahydro-1H-pyrrolo[1,2-c]imidazol-6-yl}methanesulfonamide]
The “OX2R agonist activity (3 uM, %)” value of the first is lower: 98% for the first, 103% for the second.

Compared with CS(=O)(=O)N[C@@H]1Cn2c(cn(-c3noc4cc(OC(F)(F)F)cc(-c5c(F)cc(F)cc5F)c34)c2=O)C1(F)F [Example 176, N-{(6R)-7,7-difluoro-3-oxo-2-[6-(trifluoromethoxy)-4-(2,4,6-trifluorophenyl)-1,2-benzoxazol-3-yl]-2,5,6,7-tetrahydro-3H-pyrrolo[1,2-c]imidazol-6-yl}methanesulfonamide], CCOc1cc(-c2c(F)cc(F)cc2F)c2c(-n3cc4n(c3=O)C[C@@H](NS(C)(=O)=O)C4(F)F)noc2c1 [Example 189, N-{(6R)-2-[6-ethoxy-4-(2,4,6-trifluorophenyl)-1,2-benzoxazol-3-yl]-7,7-difluoro-3-oxo-2,5,6,7-tetrahydro-3H-pyrrolo[1,2-c]imidazol-6-yl}methanesulfonamide] is higher in “OX2R agonist activity (3 uM, %)” value: 89% for the first, 103% for the second.

Going from Cc1cc(-c2c(F)cccc2F)c2c(-n3cc4n(c3=O)C[C@@H](NS(C)(=O)=O)C4(F)F)noc2c1 [Example 180, N-{(6R)-2-[4-(2,6-difluorophenyl)-6-methyl-1,2-benzoxazol-3-yl]-7,7-difluoro-3-oxo-2,5,6,7-tetrahydro-3H-pyrrolo[1,2-c]imidazol-6-yl}methanesulfonamide] to Cc1cc2onc(-n3cc4n(c3=O)C[C@@H](NS(C)(=O)=O)C4(F)F)c2c(-c2c(F)cc(F)cc2F)c1F [Example 184, N-{(6R)-7,7-difluoro-2-[5-fluoro-6-methyl-4-(2,4,6-trifluorophenyl)-1,2-benzoxazol-3-yl]-3-oxo-2,5,6,7-tetrahydro-3H-pyrrolo[1,2-c]imidazol-6-yl}methanesulfonamide], the “OX2R agonist activity (3 uM, %)” value rises from 100% to 101%.

First: CCS(=O)(=O)N[C@H]1C[C@H]2CN(c3cnc4cccc(-c5c(F)cccc5F)n34)C(=O)N2C1 [Example 182, N-{(6S,7aS)-2-[5-(2,6-difluorophenyl)imidazo[1,2-a]pyridin-3-yl]-3-oxohexahydro-1H-pyrrolo[1,2-c]imidazol-6-yl}ethanesulfonamide]
Second: CS(=O)(=O)N[C@@H]1Cn2c(cn(-c3noc4cc(CO)c(F)c(-c5c(F)cc(F)cc5F)c34)c2=O)C1(F)F [Example 185, N-{(6R)-7,7-difluoro-2-[5-fluoro-6-(hydroxymethyl)-4-(2,4,6-trifluorophenyl)-1,2-benzoxazol-3-yl]-3-oxo-2,5,6,7-tetrahydro-3H-pyrrolo[1,2-c]imidazol-6-yl}methanesulfonamide]
The “OX2R agonist activity (3 uM, %)” value of the first is lower: 84% for the first, 104% for the second.
